Structures are written as SMILES.

Experiment [1] concerns gene expression in microglia, oligodendrocytes, neurons and astrocytes. Kind of experiment: Single-cell and single-nucleus RNA sequencing of brain tissue. It is filed as in vivo, mouse. The settings on record: 5×FAD mice. On the procedure: Gene expression changes in microglia are strongly associated with AD pathogenesis. Thus, the effect of these treatments on gene expression using single-cell RNA sequencing was investigates (10× Genomics, #Chromium Next GEM Single Cell 3′ Kit v3.1, 16 rxns PN-1000268). […] The gene expression changes between treatment conditions in the microglia cluster were examined. […] Further, due to the depth of the gene expression analysis sub-clustering of microglia was performed.
As neurons were not represented from the single-cell RNA-sequencing (FIGS. 8A-12), to study the effect of these treatments on gene expression in neurons, single nucleus RNA-sequencing was performed (10× Genomics, #Chromium Next GEM Kit v3.1, 16 rxns PN-1000268). […] The gene expression changes between treatment conditions in the interneurons cluster were examined.
Mice were killed and the brain tissue was freshly dissected out and the single cell suspension or nuclei was prepared. Single cell RNA libraries were prepared using the Chromium Next GEM Single Cell 3′ Kit v3.1 according to the manufacturer's protocol (10× Genomics). The generated scRNA-seq libraries were sequenced using NovaSeq. Gene counts were obtained by aligning reads to the mouse genome. […]
RNA sequencing: The animals and brain tissues were prepared, and then the single nuclei from the brain tissue was then obtained. […] The RNA-seq data was analyzed in R package. […]

The test system of experiment [2] is excitatory neurons and interneurons of the visual cortex. Kind of experiment: In vivo electrophysiology: single unit spiking and LFP phase locking. Also on record: species or system mouse. The protocol: Next, principal component analyses was performed using action potential properties, isolated single units, and further separated them into excitatory and interneurons (FIG. 15A).
Single units were manually isolated by drawing cluster boundaries around the 3D projection of the recorded spikes, presented in SpikeSort3D software (Neuralynx).
The relationship between spike firing times and LFP gamma phase was calculated by mean resultant length using the Circular Statistics Toolbox. Briefly, spikes were sorted and LFP traces were filtered using the continuous wavelet transform returning the instantaneous signal phase and amplitudes. Spike times were linearly interpolated to determine phase, with peaks and troughs of gamma defined as 0 and ±pi radians respectively. The resulting phase values were binned to generate firing probabilities, for each 20-degree interval. […] All analyses were performed using MATLAB.
Spikes: Single units were manually isolated by drawing cluster boundaries around the 3D projection of the recorded spikes, presented in SpikeSort3D software (Neuralynx).
Single unit—LFP phase locking: The relationship between spike spiking times and LFP gamma phase was calculated by mean resultant length using the Circular Statistics Toolbox MATLAB File Exchange Function.
Briefly, spikes were sorted and LFP traces were filtered using the continuous wavelet transform returning the instantaneous signal phase and amplitudes. Spike times were linearly interpolated to determine phase, with peaks and troughs of gamma defined as 0 and ±pi radians respectively. The resulting phase values were binned to generate spiking probabilities, for each 20-degree interval. […] All analyses were performed using MATLAB. All in vivo electrophysiological analyses were conducted in MATLAB (Mathworks, #R2019a) utilizing signal processing and image processing toolboxes.

Experiment [3] relates to CSF1R resistant progenitor-like MAC2+ microglia. Briefly: MAC2+ microglia immunohistochemistry. To be noted: 5×FAD mice; Plx3397 diet 50 days vs control. Format: in vivo, mouse. On the procedure:
To study how CSF1R-sensitive microglia impact neural activity in the context of AD, an amyloidosis mouse model, the 5×FAD mice—which is a most commonly used mouse model for AD, was subject to a diet containing CSF1R inhibitor Plx3397 for 50 days (FIG. 21A). The CSF1R inhibitor Plx3397 (600 ppm) was employed, which was previously shown to effectively reduce microglia in vivo. Control mice were age-matched 5×FAD litters that received a regular diet. Electrophysiological recordings were performed using linear probes. Post-recording, the recording site in the visual cortex was verified by histology (FIG. 21), and microglia reduction was evaluated by assessing IBA1+ cell numbers.
Microglia: Iba1 immunoreactive cells were considered microglia. Using an LSM 710 or LSM 880 with a 10× (for Iba1+ cell counts) or 40× (for morphological analysis) objective z stacks of the entire slice thickness […] with […] step size were acquired. Imaris was used for 3D rendering of images to quantify the total volume of microglia. MAC2+ cells were counted manually using Image J.

[4] abbreviates: Plx3397 treated 5×FAD mice, baseline.
Where [5] appears, read: Plx3397 treated 5×FAD mice, during acute 40 Hz entrainment.

For the molecule `FC(F)(F)c1ccc(CNc2ccc(Cc3c[nH]c4ncc(Cl)cc34)cn2)cn1` [Plx3397, Pexidartinib], the “genes related to Tyrobp-trem2-Apoe pathway in microglia” value in experiment [1] (single-cell RNA sequencing, microglia cluster) is reported as “upregulated”. The “abnormal synaptic transmission genes in E-neurons” value in experiment [1] (visual cortex, snRNA-seq) is “upregulated”. Also, the “overall mean spiking rate of E-neurons and I-neurons” value in experiment [2] (5×FAD mice, Plx3397 diet 50 days vs control) was “no differences”. In experiment [2] (5×FAD mice, Plx3397 vs control), the “% of E-neurons and I-neurons phase-locked to 3-12 Hz theta oscillations” value is “reduction”; the “percentage of E-neurons and I-neurons phase-locked to 30-50 Hz gamma oscillations” value is on record as “less phase-locked”; the “strength of phase-locked neurons to gamma oscillations” value was “without significant difference”; the “strength of theta phase-locking of neurons” value is “increase”. In addition, in experiment [2] (Plx3397 treated 5×FAD mice, acute 40 Hz entrainment, of the 47 I-neurons), the “I-neurons showing 40 Hz entrainment” value amounted to 13 neurons. In experiment [2] (setting [4]), the “percentage of I-neurons phase-locked to gamma” value worked out at 34.04% and the “percentage of gamma phase-locked E-neurons” value worked out at 35.64%. Moreover, in experiment [2] (setting [5]), the “percentage of I-neurons phase-locked to gamma” value is on record as 65.95% and the “percentage of gamma phase-locked E-neurons” value amounted to 46.53%. Besides, the “gamma phase-locking strength of E-neurons and I-neurons” value in experiment [2] (Plx3397 treated 5×FAD mice, during acute 40 Hz entrainment vs baseline) is listed as “enhanced”. Further, the “CSF1R resistant progenitor-like MAC2+ microglia” value in experiment [3] is recorded as “no difference”.

Source of the values: patent US20230181905A1, “Systems, Devices, and Methods for Enhancing the Neuroprotective Effects of Non-Invasive Gamma Stimulation with Pharmacological Agents” (Massachusetts Institute of Technology, priority 2021, published 2023).
